Laboratory results reported in US8877778B2, “Benzofurane compounds” (Hoffmann-La Roche Inc., priority 2010, dated 2014).
pKi: −log10 of the molar value.

Assays:
[1] = target: human D2 receptor (Homo sapiens (Human), UniProt P14416); test: Radioligand binding ([3H]-spiperone) to cloned receptors expressed in HEK-293 EBNA cells; settings: HEK293 EBNA cell membranes expressing human D2
Method in brief: (§1)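 Membranes from transiently transfected HEK293 EBNA cells incubated 1 h at RT with ten compound concentrations (10 μM–0.1 nM). D2/D3: [3H]-spiperone ~0.7/0.5 nM, Tris–NaCl–Mg/Ca buffer pH 7.4; 5-HT2A: [3H]-ketanserin 1.1 nM, Tris–MgCl2–EGTA pH 7.4.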

[2] = target: human D3 receptor (Homo sapiens (Human), UniProt P35462); test: as above; settings: HEK293 EBNA cell membranes expressing human D3
Method in brief: as §1

[3] = target: human 5-HT2A receptor (Homo sapiens (Human), UniProt P28223); test: Radioligand binding ([3H]-ketanserin) to cloned receptors expressed in HEK-293 EBNA cells; settings: HEK293 EBNA cell membranes expressing human 5-HT2A
Method in brief: as §1

Chain of human D2 receptor (P14416 whole entry): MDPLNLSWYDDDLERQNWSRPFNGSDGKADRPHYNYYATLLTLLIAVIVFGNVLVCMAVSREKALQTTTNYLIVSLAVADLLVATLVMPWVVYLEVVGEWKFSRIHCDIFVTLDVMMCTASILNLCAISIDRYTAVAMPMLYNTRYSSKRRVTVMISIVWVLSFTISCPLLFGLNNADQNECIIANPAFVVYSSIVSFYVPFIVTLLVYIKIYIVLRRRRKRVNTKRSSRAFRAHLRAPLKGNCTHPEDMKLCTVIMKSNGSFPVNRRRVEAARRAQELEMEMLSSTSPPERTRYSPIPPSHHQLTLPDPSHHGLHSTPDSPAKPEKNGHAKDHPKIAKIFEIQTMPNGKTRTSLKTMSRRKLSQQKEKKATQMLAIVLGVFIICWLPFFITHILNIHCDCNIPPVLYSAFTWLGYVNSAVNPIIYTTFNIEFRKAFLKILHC
Chain of human D3 receptor (P35462 whole entry): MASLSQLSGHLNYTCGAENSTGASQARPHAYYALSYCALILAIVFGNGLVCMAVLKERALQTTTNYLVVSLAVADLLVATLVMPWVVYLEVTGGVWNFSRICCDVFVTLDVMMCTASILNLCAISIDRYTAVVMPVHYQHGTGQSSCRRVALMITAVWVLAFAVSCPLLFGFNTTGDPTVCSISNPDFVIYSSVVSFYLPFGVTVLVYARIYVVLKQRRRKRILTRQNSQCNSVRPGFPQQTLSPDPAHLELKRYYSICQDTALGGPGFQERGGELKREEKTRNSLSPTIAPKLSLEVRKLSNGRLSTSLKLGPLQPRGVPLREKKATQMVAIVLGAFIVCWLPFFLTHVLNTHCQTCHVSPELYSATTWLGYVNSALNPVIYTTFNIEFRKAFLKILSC
Chain of human 5-HT2A receptor (P28223 whole entry): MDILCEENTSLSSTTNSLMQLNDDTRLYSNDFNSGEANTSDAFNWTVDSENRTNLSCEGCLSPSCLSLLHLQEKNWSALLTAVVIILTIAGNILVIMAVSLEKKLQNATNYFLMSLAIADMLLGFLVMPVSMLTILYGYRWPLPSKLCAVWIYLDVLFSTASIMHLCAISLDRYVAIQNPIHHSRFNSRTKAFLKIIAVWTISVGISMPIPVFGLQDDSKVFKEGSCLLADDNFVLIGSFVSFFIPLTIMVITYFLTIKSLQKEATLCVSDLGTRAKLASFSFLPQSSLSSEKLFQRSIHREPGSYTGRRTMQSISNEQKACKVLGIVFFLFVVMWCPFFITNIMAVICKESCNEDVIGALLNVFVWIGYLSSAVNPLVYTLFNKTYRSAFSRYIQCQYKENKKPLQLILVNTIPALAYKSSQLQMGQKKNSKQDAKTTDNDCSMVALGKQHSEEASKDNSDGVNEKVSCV

| SMILES | pKi [1] | pKi [2] | pKi [3] | melting point | D2 Ki [1] |
| --- | --- | --- | --- | --- | --- |
| C/C=C/CC(=O)N[C@H]1CC[C@H](CCN2CCC(c3cccc4c3CCO4)CC2)CC1 [Example 85, (E)-Pent-3-enoic acid trans-(4-{2-[4-(2,3-dihydro-benzofuran-4-yl)-piperidin-1-yl]-ethyl}-cyclohexyl)-amide] | 6.36 | 8.24 | 7.11 | 196 °C |  |
| CC#CC(=O)N[C@H]1CC[C@H](CCN2CCC(c3cccc4c3CCO4)CC2)CC1 [Example 86, But-2-ynoic acid trans-(4-{2-[4-(2,3-dihydro-benzofuran-4-yl)-piperidin-1-yl]-ethyl}-cyclohexyl)-amide] | 6.93 | 8.14 | 7.34 | 195 °C |  |
| O=CN[C@H]1CC[C@H](CCN2CCC(c3cccc4c3CCO4)CC2)CC1 [Example 87, trans-N-(4-{2-[4-(2,3-Dihydro-benzofuran-4-yl)-piperidin-1-yl]-ethyl}-cyclohexyl)-formamide] | 6.78 | 7.94 | 6.97 | 142 °C |  |
| CC(C)(C)Oc1ccc(C(=O)N[C@H]2CC[C@H](CCN3CCC(c4cccc5c4CCO5)CC3)CC2)cc1 [Example 88, trans-4-tert-Butoxy-N-(4-{2-[4-(2,3-dihydro-benzofuran-4-yl)-piperidin-1-yl]-ethyl}-cyclohexyl)-benzamide] |  | 7.65 | 7.37 | 216 °C | inactive |
| O=C(N[C@H]1CC[C@H](CCN2CCC(c3cccc4c3CCO4)CC2)CC1)c1ccc(Cl)cc1Cl [Example 89, trans-2,4-Dichloro-N-(4-{2-[4-(2,3-dihydro-benzofuran-4-yl)-piperidin-1-yl]-ethyl}-cyclohexyl)-benzamide] | 6.63 | 8.08 | 7.50 | 188 °C |  |
| O=C(N[C@H]1CC[C@H](CCN2CCC(c3cccc4c3CCO4)CC2)CC1)c1ccc(-n2cccc2)cc1 [Example 90, trans-N-(4-{2-[4-(2,3-Dihydro-benzofuran-4-yl)-piperidin-1-yl]-ethyl}-cyclohexyl)-4-pyrrol-1-yl-benzamide] | 7.07 | 7.98 | 7.52 | 228 °C |  |
| O=C(N[C@H]1CC[C@H](CCN2CCC(c3cccc4c3CCO4)CC2)CC1)c1ccc(-c2ccccc2)cc1 [Example 91, Biphenyl-4-carboxylic acid trans-(4-{2-[4-(2,3-dihydro-benzofuran-4-yl)-piperidin-1-yl]-ethyl}-cyclohexyl)-amide] | 6.30 | 8.11 | 7.55 | 241 °C |  |
| O=C(N[C@H]1CC[C@H](CCN2CCC(c3cccc4c3CCO4)CC2)CC1)c1ccc(-c2cccnc2)cc1 [Example 92, trans-N-(4-{2-[4-(2,3-Dihydro-benzofuran-4-yl)-piperidin-1-yl]-ethyl}-cyclohexyl)-4-pyridin-3-yl-benzamide] | 7.00 | 8.27 | 7.60 | 224 °C |  |
| O=C(Cc1noc2ccccc12)N[C@H]1CC[C@H](CCN2CCC(c3cccc4c3CCO4)CC2)CC1 [Example 93, trans-2-Benzo[d] isoxazol-3-yl-N-(4-{2-[4-(2,3-dihydro-benzofuran-4-yl)-piperidin-1-yl]-ethyl}-cyclohexyl)-acetamide] | 6.61 | 8.49 | 7.51 | 214 °C |  |
| O=C(Cc1ccc2c(c1)OCO2)N[C@H]1CC[C@H](CCN2CCC(c3cccc4c3CCO4)CC2)CC1 [Example 94, trans-2-Benzo[1,3]dioxol-5-yl-N-(4-{2-[4-(2,3-dihydro-benzofuran-4-yl)-piperidin-1-yl]-ethyl}-cyclohexyl)-acetamide] | 6.14 | 8.44 | 7.34 | 209 °C |  |
| CS(=O)(=O)c1ccc(C(=O)N[C@H]2CC[C@H](CCN3CCC(c4cccc5c4CCO5)CC3)CC2)cc1 [Example 95, trans-N-(4-{2-[4-(2,3-Dihydro-benzofuran-4-yl)-piperidin-1-yl]-ethyl}-cyclohexyl)-4-methanesulfonyl-benzamide] | 6.79 | 7.85 | 7.83 | 236 °C |  |
